Molecular target: recombinant human HPK1 (Homo sapiens (Human), UniProt Q92918)
Assay: HPK1 kinase assay (ADP-Glo)
Format: biochemical
Settings: 25 μM ATP, MBP substrate
Method in brief: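 Activity was read as ADP formed, detected by ADP-Glo luminescence after the reaction of 5 ng recombinant human HPK1 with MBP and ATP (stocks 0.5 μg/μl and 25 μM) for 40 min at 30 °C. Buffer was Tris pH 7.5 with MgCl2, BSA and DTT, with compound in 0.5% DMSO. IC50 came from inhibition curves.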

recombinant human HPK1, sequence (Q92918 whole entry): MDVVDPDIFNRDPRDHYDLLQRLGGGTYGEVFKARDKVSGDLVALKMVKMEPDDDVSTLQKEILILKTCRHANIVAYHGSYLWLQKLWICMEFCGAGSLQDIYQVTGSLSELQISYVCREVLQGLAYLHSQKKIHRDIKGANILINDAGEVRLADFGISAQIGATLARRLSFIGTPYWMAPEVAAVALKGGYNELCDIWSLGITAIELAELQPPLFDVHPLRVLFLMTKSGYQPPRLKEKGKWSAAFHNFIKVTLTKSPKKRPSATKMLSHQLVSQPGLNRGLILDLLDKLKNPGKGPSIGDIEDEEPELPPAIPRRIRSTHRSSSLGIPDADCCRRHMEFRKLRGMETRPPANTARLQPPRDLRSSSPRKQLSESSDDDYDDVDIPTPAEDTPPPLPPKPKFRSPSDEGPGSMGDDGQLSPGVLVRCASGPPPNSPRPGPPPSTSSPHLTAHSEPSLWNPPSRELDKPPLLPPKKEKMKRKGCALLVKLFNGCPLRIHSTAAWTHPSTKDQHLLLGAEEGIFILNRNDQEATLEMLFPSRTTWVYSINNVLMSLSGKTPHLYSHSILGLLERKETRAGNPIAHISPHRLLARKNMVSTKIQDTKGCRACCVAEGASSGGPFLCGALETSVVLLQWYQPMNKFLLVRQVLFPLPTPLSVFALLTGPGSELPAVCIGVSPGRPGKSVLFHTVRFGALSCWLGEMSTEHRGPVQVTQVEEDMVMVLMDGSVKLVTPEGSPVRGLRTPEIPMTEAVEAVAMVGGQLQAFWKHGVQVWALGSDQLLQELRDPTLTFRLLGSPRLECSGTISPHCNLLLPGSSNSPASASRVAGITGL

Row | SMILES | IC50 [nM]
1 | Cc1ccc2[nH]ncc2c1-c1ccc2nc(NC(=O)[C@@H]3C[C@@H]3F)cn2c1 [Example 221, (1S,2S)-2-fluoro-N-(6-(5-methyl-1H-indazol-4-yl)imidazo[1,2-a]pyridin-2-yl)cyclopropane-1-carboxamide] | 101 to 500
2 | O=C(Nc1cc2cc(-c3c(Cl)c(F)c(Nc4ncccn4)c4[nH]ncc34)ccn2n1)[C@@H]1C[C@@H]1F [Example 601, (1S,2S)-N-(5-(5-chloro-6-fluoro-7-(pyrimidin-2-ylamino)-1H-indazol-4-yl)pyrazolo[1,5-a]pyridin-2-yl)-2-fluorocyclopropane-1-carboxamide] | < 100
3 | O=C(Nc1cc2cc(-c3c(C(F)F)ccc4[nH]ncc34)ccn2n1)[C@@H]1C[C@@H]1F [Example 465, (1S,2S)-N-(5-(5-(difluoromethyl)-1H-indazol-4-yl)pyrazolo[1,5-a]pyridin-2-yl)-2-fluorocyclopropane-1-carboxamide] | < 100
4 | CC(NC(=O)C(F)(F)F)c1c(F)c(Cl)c(-c2ccn3nc(NC(=O)[C@@H]4C[C@@H]4F)cc3c2)c2cn[nH]c12 (stereo partly drawn) [Example 662, (1S,2S)-N-(5-(5-chloro-6-fluoro-7-(1-(2,2,2-trifluoroacetamido)ethyl)-1H-indazol-4-yl)pyrazolo[1,5-a]pyridin-2-yl)-2-fluorocyclopropane-1-carboxamide] | < 100
5 | CSc1ccc2[nH]ncc2c1-c1ccn2nc(NC(=O)[C@@H]3C[C@@H]3F)cc2c1 [Example 463, (1S,2S)-2-fluoro-N-(5-(5-(methylthio)-1H-indazol-4-yl)pyrazolo[1,5-a]pyridin-2-yl)cyclopropane-1-carboxamide] | < 100
6 | CCC(=O)NC(C)c1c(F)c(Cl)c(-c2ccc3nc(NC(=O)[C@@H]4C[C@@H]4F)cn3c2)c2cn[nH]c12 (stereo partly drawn) [Example 424, (1S,2S)-N-(6-(5-chloro-6-fluoro-7-(1-propionamidoethyl)-1H-indazol-4-yl)imidazo[1,2-a]pyridin-2-yl)-2-fluorocyclopropane-1-carboxamide] | < 100
7 | Cc1noc(-c2c(F)c(Cl)c(-c3ccc4nc(NC(=O)[C@@H]5C[C@@H]5F)cn4c3)c3cn[nH]c23)n1 [Example 364, (1S,2S)-N-(6-(5-chloro-6-fluoro-7-(3-methyl-1,2,4-oxadiazol-5-yl)-1H-indazol-4-yl)imidazo[1,2-a]pyridin-2-yl)-2-fluorocyclopropane-1-carboxamide] | < 100
8 | CC(Nc1c(F)c(Cl)c(-c2ccc3nc(NC(=O)[C@@H]4C[C@@H]4F)cn3c2)c2cn[nH]c12)C(F)F (stereo partly drawn) [Example 425, (1S,2S)-N-(6-(5-chloro-7-((1,1-difluoropropan-2-yl)amino)-6-fluoro-1H-indazol-4-yl)imidazo[1,2-a]pyridin-2-yl)-2-fluorocyclopropane-1-carboxamide] | < 100
9 | CSc1c(F)c(C)c(-c2ccc3nc(NC(=O)[C@@H]4C[C@@H]4F)cn3c2)c2cn[nH]c12 [Example 269, (1S,2S)-2-fluoro-N-(6-(6-fluoro-5-methyl-7-(methylthio)-1H-indazol-4-yl)imidazo[1,2-a]pyridin-2-yl)cyclopropane-1-carboxamide] | < 100
10 | COC[C@@H](C)c1c(F)c(Cl)c(-c2ccn3nc(NC(=O)[C@@H]4C[C@@H]4F)cc3c2)c2cn[nH]c12 [Example 656, (1S,2S)-N-(5-(5-chloro-6-fluoro-7-((S)-1-methoxypropan-2-yl)-1H-indazol-4-yl)pyrazolo[1,5-a]pyridin-2-yl)-2-fluorocyclopropane-1-carboxamide] | < 100
11 | CNC(=O)OCCN(C)c1c(F)c(C)c(-c2ccc3nc(NC(=O)[C@@H]4C[C@@H]4F)sc3n2)c2cn[nH]c12 [Example 202, 2-((6-fluoro-4-(2-((1S,2S)-2-fluorocyclopropane-1-carboxamido)thiazolo[5,4-b]pyridin-5-yl)-5-methyl-1H-indazol-7-yl)(methyl)amino)ethyl methylcarbamate] | < 100
12 | Cc1ccc2[nH]ncc2c1-c1ccc2nc(NC(=O)[C@@H]3C[C@@H]3F)sc2n1 [Example 146, (1S,2S)-2-fluoro-N-(5-(5-methyl-1H-indazol-4-yl)thiazolo[5,4-b]pyridin-2-yl)cyclopropane-1-carboxamide] | 101 to 500
13 | CCOc1c(F)c(SC)c(-c2ccc3nc(NC(=O)[C@@H]4C[C@@H]4F)cn3c2)c2cn[nH]c12 [Example 310, (1S,2S)-N-(6-(7-ethoxy-6-fluoro-5-(methylthio)-1H-indazol-4-yl)imidazo[1,2-a]pyridin-2-yl)-2-fluorocyclopropane-1-carboxamide] | < 100
14 | CC(=O)NC(C)c1c(F)c(Cl)c(-c2ccn3nc(NC(=O)[C@@H]4C[C@@H]4F)cc3c2)c2cn[nH]c12 (stereo partly drawn) [Example 663, (1S,2S)-N-(5-(7-(1-acetamidoethyl)-5-chloro-6-fluoro-1H-indazol-4-yl)pyrazolo[1,5-a]pyridin-2-yl)-2-fluorocyclopropane-1-carboxamide] | < 100
15 | CCOc1c(F)c(Cl)c(-c2ccc3nc(NC(=O)[C@@H]4C[C@@H]4F)cn3c2)c2cn[nH]c12 [Example 275, (1S,2S)-N-(6-(5-chloro-7-ethoxy-6-fluoro-1H-indazol-4-yl)imidazo[1,2-a]pyridin-2-yl)-2-fluorocyclopropane-1-carboxamide] | < 100
16 | CN(Cc1cccnc1)c1c(F)c(Cl)c(-c2ccc3nc(NC(=O)[C@@H]4C[C@@H]4F)cn3c2)c2cn[nH]c12 [Example 349, (1S,2S)-N-(6-(5-chloro-6-fluoro-7-(methyl(pyridin-3-ylmethyl)amino)-1H-indazol-4-yl)imidazo[1,2-a]pyridin-2-yl)-2-fluorocyclopropane-1-carboxamide] | < 100
17 | O=C(Nc1nc2ccc(-c3c(-c4ccsc4)ccc4[nH]ncc34)cc2s1)C1CC1 [Example 18, N-(6-(5-(thiophen-3-yl)-1H-indazol-4-yl)benzo[d]thiazol-2-yl)cyclopropanecarboxamide] | > 1000
18 | O=C(Nc1cc2cc(-c3c(Br)ccc4[nH]ncc34)ccn2n1)[C@@H]1C[C@@H]1F [Example 455, (1S,2S)-N-(5-(5-bromo-1H-indazol-4-yl)pyrazolo[1,5-a]pyridin-2-yl)-2-fluorocyclopropane-1-carboxamide] | < 100
19 | Cc1c(F)c(C(=O)N(C)C)c2[nH]ncc2c1-c1ccc2nc(NC(=O)[C@@H]3C[C@@H]3F)sc2n1 [Example 197, 6-fluoro-4-(2-((1S,2S)-2-fluorocyclopropane-1-carboxamido)thiazolo[5,4-b]pyridin-5-yl)-N,N,5-trimethyl-1H-indazole-7-carboxamide] | < 100
20 | CN(Nc1c(F)c(Cl)c(-c2ccc3nc(NC(=O)[C@@H]4C[C@@H]4F)sc3n2)c2cn[nH]c12)C(=O)OC(C)(C)C [Example 192, tert-butyl 2-(5-chloro-6-fluoro-4-(2-((1S,2S)-2-fluorocyclopropane-1-carboxamido)thiazolo[5,4-b]pyridin-5-yl)-1H-indazol-7-yl)-1-methylhydrazine-1-carboxylate] | < 100

Continued, values first:

Row | IC50 [nM] | SMILES
21 | 101 to 500 | O=C(Nc1nc2ccc(-c3c(Cl)c(F)c(N4CCOCC4)c4[nH]ncc34)cc2s1)[C@@H]1C[C@@H]1F [Example 74, (1S,2S)-N-(6-(5-chloro-6-fluoro-7-morpholino-1H-indazol-4-yl)benzo[d]thiazol-2-yl)-2-fluorocyclopropane-1-carboxamide]
22 | < 100 | CC(=O)Nc1c(F)c(Cl)c(-c2ccc3nc(NC(=O)[C@@H]4C[C@@H]4F)sc3n2)c2cn[nH]c12 [Example 179, (1S,2S)-N-(5-(7-acetamido-5-chloro-6-fluoro-1H-indazol-4-yl)thiazolo[5,4-b]pyridin-2-yl)-2-fluorocyclopropane-1-carboxamide]
23 | > 1000 | NC(=O)c1c(F)c(Cl)c(-c2ccc3nc(NC(=O)[C@@H]4C[C@@H]4F)sc3c2)c2cn[nH]c12 [Example 135, 5-chloro-6-fluoro-4-(2-((1S,2S)-2-fluorocyclopropane-1-carboxamido)benzo[d]thiazol-6-yl)-1H-indazole-7-carboxamide]
24 | < 100 | O=C(Nc1cn2cc(-c3c(Cl)c(F)c(OC4CC4)c4[nH]ncc34)ccc2n1)[C@@H]1C[C@@H]1F [Example 401, (1S,2S)-N-(6-(5-chloro-7-cyclopropoxy-6-fluoro-1H-indazol-4-yl)imidazo[1,2-a]pyridin-2-yl)-2-fluorocyclopropane-1-carboxamide]
25 | 101 to 500 | Cc1ccc2[nH]ncc2c1-c1ccc2nc(NC(=O)C3CC(F)C3)sc2c1 [Example 6, (1S,3S)-3-fluoro-N-(6-(5-methyl-1H-indazol-4-yl)benzo[d]thiazol-2-yl)cyclobutane-1-carboxamide]
26 | < 100 | CNNc1c(F)c(Cl)c(-c2ccc3nc(NC(=O)[C@@H]4C[C@@H]4F)sc3c2)c2cn[nH]c12 [Example 115, (1S,2S)-N-(6-(5-chloro-6-fluoro-7-(2-methylhydrazineyl)-1H-indazol-4-yl)benzo[d]thiazol-2-yl)-2-fluorocyclopropane-1-carboxamide]
27 | 101 to 500 | CS(=O)(=O)c1c(F)c(Cl)c(-c2ccc3nc(NC(=O)[C@@H]4C[C@@H]4F)sc3c2)c2cn[nH]c12 [Example 119, (1S,2S)-N-(6-(5-chloro-6-fluoro-7-(methylsulfonyl)-1H-indazol-4-yl)benzo[d]thiazol-2-yl)-2-fluorocyclopropane-1-carboxamide]
28 | < 100 | O=C(Nc1cn2cc(-c3c(Cl)c(F)c(Cl)c4[nH]ncc34)ccc2n1)[C@@H]1C[C@@H]1F [Example 256, (1S,2S)-N-(6-(5,7-dichloro-6-fluoro-1H-indazol-4-yl)imidazo[1,2-a]pyridin-2-yl)-2-fluorocyclopropane-1-carboxamide]
29 | > 1000 | CSc1c(F)cc(-c2ccc3nc(NC(=O)[C@@H]4C[C@@H]4F)sc3c2)c2cn[nH]c12 [Example 141, (1S,2S)-2-fluoro-N-(6-(6-fluoro-7-(methylthio)-1H-indazol-4-yl)benzo[d]thiazol-2-yl)cyclopropane-1-carboxamide]

Source: patent US11649255B2, “Indazoles as hematopoietic progenitor kinase 1 (HPK1) inhibitors and methods using same” (1st Biotherapeutics, Inc., priority 2020, dated 2023)
